The text below walks through data of PMC12551991, “Inheritance and enzymatic basis of anthocyanin malonylation in Fragaria × ananassa” (The Plant Journal, 2025).

Common to all, as to experiment: LC-MS malonyltransferase assay, non-linear Michaelis-Menten fit
Holding throughout (format): biochemical, Fragaria × ananassa
Details in all cases: potassium phosphate pH 7.0, 30°C, 30 min

For one experiment, the system named is T1, MAT1C (FaMAT1C).
T1 construct: gene MAT1; no tag removal described
An excerpt: LC-MS malonyltransferase assay, non-linear Michaelis-Menten fit on MAT1C (FaMAT1C)

For the next experiment, the system named is T2, MAT4C1/S1 (FaMAT4C1).
T2 construct: gene MAT4; no tag removal described
An excerpt:
LC-MS malonyltransferase assay, non-linear Michaelis-Menten fit on MAT4C1/S1 (FaMAT4C1)

In another experiment the test system is T3, MAT1S (FaMAT1S).
T3 construct: gene MAT1; no tag removal described
An excerpt:
LC-MS malonyltransferase assay, non-linear Michaelis-Menten fit on MAT1S (FaMAT1S)

The test system of a further experiment is T4, MAT2C1/S1 (MAT2S1).
T4 construct: gene MAT2; no tag removal described
An excerpt: LC-MS malonyltransferase assay, non-linear Michaelis-Menten fit on MAT2C1/S1 (MAT2S1)

In the next experiment the test system is T5, MAT2C2/S2 (MAT2S2).
T5 construct: gene MAT2; no tag removal described
An excerpt: LC-MS malonyltransferase assay, non-linear Michaelis-Menten fit on MAT2C2/S2 (MAT2S2)

Where [1] appears, read: acceptor, co-substrate malonyl-CoA.
Where [2] appears, read: donor, co-substrate quercetin-3-glucoside.

As a reminder, the Km is the concentration of substrate that gives half-maximal velocity. As to `OC[C@H]1O[C@@H](Oc2cc3c(O)cc(O)cc3[o+]c2-c2ccc(O)c(O)c2)[C@H](O)[C@@H](O)[C@@H]1O` [Cyanidin‐3‐glucoside], the Km in the experiment with MAT1C (FaMAT1C) (setting [1]) amounted to 17 ± 3 µM; in the experiment on MAT4C1/S1 (FaMAT4C1) (setting [1]), 63 ± 30 µM; with MAT1S (FaMAT1S) (setting [1]) it was 11 ± 3 µM.
Consider `O=c1c(O[C@@H]2O[C@H](CO)[C@@H](O)[C@H](O)[C@H]2O)c(-c2ccc(O)cc2)oc2cc(O)cc(O)c12` [Kaempferol‐3‐glucoside], for which the Km stood at 150 ± 40 µM in the experiment on MAT1C (FaMAT1C) (setting [1]), 250 ± 80 µM with MAT4C1/S1 (FaMAT4C1) (setting [1]), 790 ± 300 µM in the experiment on MAT2C1/S1 (MAT2S1) (setting [1]) and 300 ± 60 µM in the experiment with MAT1S (FaMAT1S) (setting [1]).
With `CC(C)(COP(=O)(O)OP(=O)(O)OC[C@H]1O[C@@H](n2cnc3c(N)ncnc32)[C@H](O)[C@@H]1OP(=O)(O)O)[C@@H](O)C(=O)NCCC(=O)NCCSC(=O)CC(=O)O` [Malonyl‐CoA], the Km in the experiment with MAT1C (FaMAT1C) (setting [2]) stood at 700 ± 200 µM; in the experiment with MAT2C2/S2 (MAT2S2) (setting [2]) it was 24 ± 20 µM; in the experiment on MAT4C1/S1 (FaMAT4C1) (setting [2]) it was 410 ± 200 µM; in the experiment on MAT2C1/S1 (MAT2S1) (setting [2]), 22 ± 10 µM; with MAT1S (FaMAT1S) (setting [2]), 450 ± 200 µM.
Consider `O=c1c(O[C@@H]2O[C@H](CO)[C@@H](O)[C@H](O)[C@H]2O)c(-c2ccc(O)c(O)c2)oc2cc(O)cc(O)c12` [Quercetin‐3‐glucoside], for which the Km came to 310 ± 100 µM with MAT1C (FaMAT1C) (setting [1]); 180 ± 60 µM in the experiment on MAT2C2/S2 (MAT2S2) (setting [1]); 220 ± 100 µM with MAT4C1/S1 (FaMAT4C1) (setting [1]); 180 ± 50 µM in the experiment on MAT2C1/S1 (MAT2S1) (setting [1]); 300 ± 100 µM in the experiment with MAT1S (FaMAT1S) (setting [1]).
In the case of `OC[C@H]1O[C@@H](Oc2cc3c(O)cc(O)cc3[o+]c2-c2ccc(O)cc2)[C@H](O)[C@@H](O)[C@@H]1O` [Pelargonidin‐3‐glucoside], the figures for the Km in the experiment with MAT1C (FaMAT1C) (setting [1]), in the experiment with MAT4C1/S1 (FaMAT4C1) (setting [1]) and with MAT1S (FaMAT1S) (setting [1]) were 270 ± 100 µM, 390 ± 200 µM and 400 ± 200 µM, respectively.
